From patent US11345711B2, “8,9-dihydroimidazo[1,2-a]pyrimido[5,4-e]pyrimidin-5(6H)-ones” (IMPACT THERAPEUTICS (SHANGHAI), INC, priority 2016, dated 2022)
pIC50: −log10 of the molar value. Like-named read-outs stand apart in the source and are kept apart here.

Assays:
Wee1 (h) = Wee1 (h) (Homo sapiens, UniProt P30291); experiment: Wee1 kinase (h) detection method, [γ-33P]-ATP filter assay; format: biochemical
LoVo cells = experiment: MTT based cell viability assay on LoVo cells; conditions: Homo sapiens, LoVo, 72 h, 3 d, read-out: IC50, growth inhibition of LoVo cells
How it was run: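 Inhibition of LoVo proliferation was derived as IC50 from a sigmoidal dose-response fit of cell survival. Readout was MTT (0.5 mg/mL, 4 h) with absorbance at 552/630/690 nm, after 3-day treatment at 37 °C. Eight-point series from 10 μM to 0.01 μM, DMSO control, 1% DMSO final.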

NCI-H1299 cells = experiment: MTT based cell viability assay on NCI-H1299 cells; conditions: Homo sapiens, read-out: IC50, growth inhibition of NCI-H1299 cells
How it was run: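 NCI-H1299 cells (1000/well, settled overnight) were exposed for 3 d at 37 °C, 5% CO2, to an eight-point series of 10 μM to 0.01 μM plus DMSO blank, as prepared in DMSO (final DMSO 1‰). MTT (0.5 mg/mL, 4 h) was read at 552/630/690 nm. IC50 came from sigmoidal dose-response fits of survival.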

Sequence of Wee1 (h) (P30291 whole entry): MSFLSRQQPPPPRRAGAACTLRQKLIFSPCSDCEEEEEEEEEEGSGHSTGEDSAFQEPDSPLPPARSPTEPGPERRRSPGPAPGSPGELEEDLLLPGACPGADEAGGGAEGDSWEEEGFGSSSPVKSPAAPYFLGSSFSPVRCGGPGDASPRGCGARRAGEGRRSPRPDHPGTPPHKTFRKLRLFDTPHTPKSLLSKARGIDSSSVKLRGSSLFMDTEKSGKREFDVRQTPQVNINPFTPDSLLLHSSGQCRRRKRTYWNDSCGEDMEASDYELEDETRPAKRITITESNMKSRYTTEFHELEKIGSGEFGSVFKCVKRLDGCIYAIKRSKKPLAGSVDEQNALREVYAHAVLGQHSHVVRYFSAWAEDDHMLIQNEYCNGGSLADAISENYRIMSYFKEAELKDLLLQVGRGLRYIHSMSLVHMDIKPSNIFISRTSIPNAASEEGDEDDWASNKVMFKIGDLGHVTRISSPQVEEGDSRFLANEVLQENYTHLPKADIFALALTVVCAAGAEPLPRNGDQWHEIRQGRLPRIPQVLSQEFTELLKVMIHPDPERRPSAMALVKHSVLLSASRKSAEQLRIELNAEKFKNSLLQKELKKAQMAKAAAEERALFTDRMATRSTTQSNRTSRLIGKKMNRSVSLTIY

Row | Inh. (%) of Wee1 kinase enzyme activity (Wee1 (h); C 0.01 μm compound) [%] | Inh. (%) of Wee1 kinase enzyme activity (Wee1 (h); C 0.1 μm compound) [%] | Inh. (%) of Wee1 kinase enzyme activity (Wee1 (h); C 1 μm compound) [%] | pIC50 (LoVo cells) | pIC50 (NCI-H1299 cells; NCI-H1299, NCI-H1299 cells) | pIC50 (NCI-H1299 cells; NCI-H1299 cells) | Compound
1 | – | – | 75 | < 4.00 | – | < 5.00 | CN1CCN(c2ccc(Nc3ncc4c(n3)N3CCN=C3N(c3ccc(Cl)cc3Cl)C4=O)cc2)CC1 [Example 87, 6-(2,4-Dichlorophenyl)-2-((4-(4-methylpiperazin-1-yl)phenyl)amino)-8,9-dihydroimidazo[1,2-a]pyrimido[5,4-e]pyrimidin-5(6H)-one]
2 | – | – | 75 | < 4.00 | – | < 5.52 | CN1CCN(c2ccc(Nc3ncc4c(n3)N3CCN=C3N(c3ccc(F)cc3Cl)C4=O)cc2)CC1 [Example 88, 6-(2-Chloro-4-fluorophenyl)-2-((4-(4-methylpiperazin-1-yl)phenyl)amino)-8,9-dihydroimidazo[1,2-a]pyrimido[5,4-e]pyrimidin-5(6H)-one]
3 | – | – | 89 | 6.66 | – | 6.02 | CN1CCN(c2ccc(Nc3ncc4c(n3)N3CCN=C3N(c3cccc(F)c3Cl)C4=O)cc2)CC1 [Example 89, 6-(2-Chloro-3-fluorophenyl)-2-((4-(4-methylpiperazin-1-yl)phenyl)amino)-8,9-dihydroimidazo[1,2-a]pyrimido[5,4-e]pyrimidin-5(6H)-one]
4 | – | – | 29 | 5.88 | – | < 5.00 | CN1CCN(c2ccc(Nc3ncc4c(n3)N3CCN=C3N(c3cc(Cl)ccc3Cl)C4=O)cc2)CC1 [Example 90, 6-(2,5-Dichlorophenyl)-2-((4-(4-methylpiperazin-1-yl)phenyl)amino)-8,9-dihydroimidazo[1,2-a]pyrimido[5,4-e]pyrimidin-5(6H)-one]
5 | – | – | 75 | 6.73 | – | 5.63 | CN1CCN(c2ccc(Nc3ncc4c(n3)N3CCN=C3N(c3cccc(Cl)c3Cl)C4=O)cc2)CC1 [Example 91, 6-(2,3-Dichlorophenyl)-2-((4-(4-methylpiperazin-1-yl)phenyl)amino)-8,9-dihydroimidazo[1,2-a]pyrimido[5,4-e]pyrimidin-5(6H)-one]

Continued, molecule first:

Row | Compound | Inh. (%) of Wee1 kinase enzyme activity (Wee1 (h); C 0.01 μm compound) [%] | Inh. (%) of Wee1 kinase enzyme activity (Wee1 (h); C 0.1 μm compound) [%] | Inh. (%) of Wee1 kinase enzyme activity (Wee1 (h); C 1 μm compound) [%] | pIC50 (LoVo cells) | pIC50 (NCI-H1299 cells; NCI-H1299, NCI-H1299 cells) | pIC50 (NCI-H1299 cells; NCI-H1299 cells)
6 | Cc1cc(Nc2ncc3c(n2)N2CCN=C2N(c2c(Cl)cccc2Cl)C3=O)ccc1N1CCN(C(C)C)CC1 [Example 76, 6-(2,6-Dichlorophenyl)-2-((4-(4-isopropylpiperazin-1-yl)-3-methylphenyl)amino)-8,9-dihydroimidazo[1,2-a]pyrimido[5,4-e]pyrimidin-5(6H)-one] | 22 | 74 | 97 | 7.31 | 6.70 | –
7 | Cc1cc(Nc2ncc3c(n2)N2CCN=C2N(c2c(Cl)cccc2Cl)C3=O)ccc1N1C[C@@H](C)N(C)[C@@H](C)C1 [Example 77, 6-(2,6-Dichlorophenyl)-2-((3-methyl-4-((3S,5R)-3,4,5-trimethylpiperazin-1-yl)phenyl)amino)-8,9-dihydroimidazo[1,2-a]pyrimido[5,4-e]pyrimidin-5(6H)-one] | 11 | 86 | 88 | 7.28 | 6.66 | –
8 | Cc1cc(Nc2ncc3c(n2)N2CCN=C2N(c2c(Cl)cccc2Cl)C3=O)ccc1N1C[C@@H](C)N(C(C)C)[C@@H](C)C1 [Example 78, 6-(2,6-Dichlorophenyl)-2-((4-((3S,5R)-4-isopropyl-3,5-dimethylpiperazin-1-yl)-3-methylphenyl)amino)-8,9-dihydroimidazo[1,2-a]pyrimido[5,4-e]pyrimidin-5(6H)-one] | 29 | 77 | 100 | 7.38 | 6.83 | –
9 | CN1CCn2nc(Nc3ncc4c(n3)N3CCN=C3N(c3c(Cl)cccc3Cl)C4=O)cc2C1 [Example 79, 6-(2,6-Dichlorophenyl)-2-((5-methyl-4,5,6,7-tetrahydropyrazolo[1,5-a]pyrazin-2-yl)amino)-8,9-dihydroimidazo[1,2-a]pyrimido[5,4-e]pyrimidin-5(6H)-one] | – | – | 69 | < 4.00 | – | < 5.00
10 | Cc1cc(Nc2ncc3c(n2)N2CCN=C2N(c2c(Cl)cccc2C(F)(F)F)C3=O)ccc1N1CCN(C)CC1 [Example 80, 6-(2-Chloro-6-(trifluoromethyl)phenyl)-2-((3-methyl-4-(4-methylpiperazin-1-yl)phenyl)amino)-8,9-dihydroimidazo[1,2-a]pyrimido[5,4-e]pyrimidin-5(6H)-one] | – | – | 80 | 6.27 | 6.01 | –
11 | Cc1cc(Nc2ncc3c(n2)N2CCN=C2N(c2c(C)cccc2Cl)C3=O)ccc1N1CCN(C)CC1 [Example 81, 6-(2-Chloro-6-methylphenyl)-2-((3-methyl-4-(4-methylpiperazin-1-yl)phenyl)amino)-8,9-dihydroimidazo[1,2-a]pyrimido[5,4-e]pyrimidin-5(6H)-one] | 7 | 72 | 89 | 6.87 | 6.51 | –
12 | COc1cccc(Cl)c1N1C(=O)c2cnc(Nc3ccc(N4CCN(C)CC4)c(C)c3)nc2N2CCN=C21 [Example 82, 6-(2-Chloro-6-methoxyphenyl)-2-((3-methyl-4-(4-methylpiperazin-1-yl)phenyl)amino)-8,9-dihydroimidazo[1,2-a]pyrimido[5,4-e]pyrimidin-5(6H)-one] | – | – | 83 | 6.02 | – | 5.92
13 | Cc1cccc(C)c1N1C(=O)c2cnc(Nc3ccc(N4CCN(C)CC4)cc3)nc2N2CCN=C21 [Example 83, 6-(2,6-Dimethylphenyl)-2-((4-(4-methylpiperazin-1-yl)phenyl)amino)-8,9-dihydroimidazo[1,2-a]pyrimido[5,4-e]pyrimidin-5(6H)-one] | 15 | 59 | 94 | 5.54 | – | 5.84
14 | Cc1cccc(C)c1N1C(=O)c2cnc(Nc3ccc(N4C[C@@H](C)N(C)[C@@H](C)C4)cc3)nc2N2CCN=C21 [Example 84, 6-(2,6-Dimethylphenyl)-2-((4-((3S,5R)-3,4,5-trimethylpiperazin-1-yl)phenyl)amino)-8,9-dihydroimidazo[1,2-a]pyrimido[5,4-e]pyrimidin-5(6H)-one] | 18 | 49 | 93 | 5.51 | – | 6.08
15 | CN1CCN(c2ccc(Nc3ncc4c(n3)N3CCN=C3N(c3ccc(Cl)cc3)C4=O)cc2)CC1 [Example 85, 6-(4-Chlorophenyl)-2-((4-(4-methylpiperazin-1-yl)phenyl)amino)-8,9-dihydroimidazo[1,2-a]pyrimido[5,4-e]pyrimidin-5(6H)-one] | – | – | 17 | < 4.00 | – | < 5.00
16 | CN1CCN(c2ccc(Nc3ncc4c(n3)N3CCN=C3N(c3cccc(Cl)c3)C4=O)cc2)CC1 [Example 86, 6-(3-Chlorophenyl)-2-((4-(4-methylpiperazin-1-yl)phenyl)amino)-8,9-dihydroimidazo[1,2-a]pyrimido[5,4-e]pyrimidin-5(6H)-one] | – | – | 13 | < 4.00 | – | < 5.00
